Measured values published in publication PMC9410094 (Marine Drugs, 2022).
Converted amounts (≈) assume the structure as drawn. Positions of bridges follow the written chain, without caps; N, C: chain ends. Residues, ends and D or L forms follow the SMILES beside them.

How the values were obtained:
E. coli ML-35p = conditions: for Fold reduction of antibacterial activity in the presence of serum: MHB + 0.9% NaCl with 25% FBS versus without
Procedure: Initially, antimicrobial activity of abarenicin and UuBRI-21 was evaluated against the reference strain of E. coli (ML-35p) under various conditions (Table 1). Minimal inhibitory concentrations (MICs) were determined via two-fold serial dilutions in 96-well polystyrene plates. Serial dilutions were made in 0.1% bovine serum albumin (BSA) to minimize the absorption of peptides on the surface of plate wells. Mueller–Hinton broth (MHB) supplemented with 0.9% NaCl was used as the standardized medium.
(§1) Bacterial cultures were grown in MHB at 37 °C until the culture reached an optical density OD600 of 1.0 and diluted with the broth so that to reach a final cell concentration of 10^6 CFU/mL. Then 50 μL of the test culture were added to 50 μL of aqueous solutions of the peptides, previously diluted in 0.1% sterilized bovine serum albumin (BSA) to reduce non-specific binding of the peptides to the surface of the plates. Next, the plate was incubated for 24 h at 37 °C and 950 rpm on the plate thermoshaker (Biosan). The values of the minimum inhibitory concentrations (MIC) were determined as the minimum concentration of the peptide, at which there is no culture growth. The results were expressed as the median values of three independent experiments performed in triplicate.

Gram-positive bacteria = type: cell-based; conditions: 24 h
Procedure: as §1, with “The antimicrobial activity of the peptides was determined via the method of two-fold serial dilutions in sterile 96-well flat-bottom polystyrene microplates (Eppendorf #0030730011) in Mueller–Hinton broth (MHB, Sigma, Kawasaki, Kanagawa, Japan) supplemented with 0.9% NaCl. Bacterial” for “Bacterial”

E. coli 3421/E19 = assay: Neutropenic mice peritonitis model; type: in vivo, BALB/c mice; conditions: for Efficacy in the neutropenic peritonitis model (in words): single i.v. dose of 10 mg/kg, E. coli 3421/E19
Procedure: Immune-deficient mice were inoculated intraperitoneally (i.p.) with bacterial suspension. Antimicrobial agent was administered 1 h post-infection, and colony counts in blood and peritoneal fluid (PF) were determined 5 h later.
(A) The mice peritonitis model. […] Horizontal bars indicate means ± SD.
Food and water were provided ad libitum.
CFU counts were determined from blood and peritoneal fluid (PF) 5 h after treatment. The mice were euthanized by CO2 asphyxiation and blood was collected by axillary cut down. A total of 2 mL sterile saline was injected i.p. and the abdomen gently massaged before it was opened, fluid sampled with a pipette, serially diluted and placed on Endo agar supplemented with 20 µg/mL of tetracycline for CFU identification.

[1] = RP-HPLC retention time as measure of hydrophobicity; type: physicochemical; conditions: chromatographic, semipreparative RP-HPLC, C18 column, linear gradient 5 to 80% (v/v) acetonitrile in water with 0.1% TFA within 50 minutes; used as measure of hydrophobicity
Procedure: Table S1. Characteristics of the recombinant AMPs.
1 Mean Kyte–Doolittle hydrophobicity index (GRAVY) was calculated using the Expasy ProtParam tool. The maximum and minimum values of this index are +4.5 and -4.5 for poly-Ile and poly-Arg sequences, respectively. 2 Retention times were measured using semipreparative reversed-phase high-performance liquid chromatography (RP - HPLC) on a C18 column with a linear gradient from 5 to 80% ( v/v) acetonitrile in water containing 0.1% trifluoroacetic […]
acid (TFA) within 50 minutes. […]

E. coli ATCC 25922 = assay: Mice septicemia model, survival; conditions: BALB/c mice, n = 8, E. coli ATCC 25922 i.p. with 2.5% mucin
Procedure: Ciprofloxacin (the single dose of 10 mg/kg) and saline were used as the positive and negative controls, respectively. […] Mice were controlled once daily for their health status during 7 post-infection days.
Then, we examined an efficacy of AMPs in the mice septicemia model using 8 animals in a group (Figure 10B).
Experiments were performed with female 8–10-week-old BALB/c mice (22–24 g, “Andreevka” laboratory animal nursery FMBA, Russia). […] All animal experiments were performed at the State Research Center for Applied Microbiology and Biotechnology (SRCAMB) in Obolensk, Russia. The animals were housed in groups of 5 in polycarbonate cages. Food and water were provided ad libitum.
A total of 4 groups with 8 animals were used. The first group received ciprofloxacin (Sigma, Kawasaki, Kanagawa, Japan) administered i.p. once (1 h post-infection) at a dose of 10 mg/kg. The second group received saline (as a vehicle control) administered i.p. once (1 h post-infection). […] Survival was monitored for 7 days. After that survived animals were euthanized by CO2 asphyxiation.

Gram-negative bacteria = assay: Geometric mean of MICs, Gram-negative panel; type: cell-based
Procedure: as §1, with “The antimicrobial activity of the peptides was determined via the method of two-fold serial dilutions in sterile 96-well flat-bottom polystyrene microplates (Eppendorf #0030730011) in Mueller–Hinton broth (MHB, Sigma, Kawasaki, Kanagawa, Japan) supplemented with 0.9% NaCl. Bacterial” for “Bacterial”

human red blood cells = type: cell-based
Procedure: Figure 4 (A) Hemolytic effect on human red blood cells after 2 h incubation (hemoglobin release assay). (B) Cytotoxicity toward transformed human embryonic kidney cells after 20 h incubation (MTT-assay). The positive control used was 0.1% Triton X-100 and sterile PBS as a negative control. Melittin was used as an additional positive control. The data are presented as the mean ± SD of three independent experiments.
The hemolytic activity of compounds was performed using human red blood cells (hRBS) of healthy donor. Fresh blood was centrifuged to separate the erythrocyte fraction for 15 min at 500 g and washed three times with cold phosphate-buffered saline (PBS) (pH 7.4), after which an 8% (v/v) suspension of erythrocytes in PBS was prepared. Then, 50 µL of erythrocyte suspension was added to the test peptides, previously were dissolved in 50 µL of 0.1% BSA. The plate was incubated for 1.5 h at 37 °C and 950 rpm on the plate thermoshaker. After incubation, the plates were centrifuged for 15 min at 1000 g to settle intact erythrocytes. Next, aliquots of the supernatant were transferred to another plate to measure the amount of hemoglobin release by the absorbance of the solution at 405 nm. As “zero lysis” we used the supernatant obtained after centrifugation of erythrocytes incubated in a PBS solution without the addition of a peptide. As “100% lysis”, we used the supernatant obtained after centrifugation of erythrocytes incubated in a 0.1% Triton X-100, causing their complete lysis. The assays were conducted three times. The quantitative data were presented as an average means with standard deviations. Hemolysis(%)=OD405(compound)−OD405(zerolysis)/OD405(100%lysis)−OD405(zerolysis)×100%

[2] = test system: P. aeruginosa PAO1 mature biofilms; assay: Effect on mature biofilms, viability by MTT; conditions: P. aeruginosa PAO1 pre-formed biofilm, 2-h exposure
Procedure: Biofilm viability was measured by tetrazolium salt reduction (right panel). Values are presented as means ± the standard deviation (SD) of three independent experiments.
The effect of peptides on pre-formed biofilms was evaluated as follows. Biofilms were grown on a 96-well plate at 32 °C for 24 h and stirred at 120 rpm to ensure biofilm formation primarily on the wall of the wells. […] Bacterial survival in the biofilms after 2-h exposure was evaluated via a MTT assay after incubation with a tested peptide. Then, wells were rinsed with sterile water, treated with an MTT solution (Sigma, Kawasaki, Kanagawa, Japan) in PBS, and incubated for 4 h at 37 °C. Next, the medium was removed. The resulting formazan crystals were dissolved in a mixture of EtOH and DMSO (1:1) for 10 min. The optical density of the solution was measured at 570 nm. Bacterial survival was calculated as percent relative to samples without antimicrobial agent. All data were obtained from at least three independent experiments in 3 repetitions.

Row | Compound | Fold reduction of antibacterial activity in the presence of serum (E. coli ML-35p) | Minimum inhibitory concentration (MIC): Gram-positive Geometric mean (Gram-positive bacteria) | Efficacy in the neutropenic peritonitis model (in words) (E. coli 3421/E19) | RP-HPLC Retention Time [1] | Hemolytic activity (in words) (human red blood cells) | further results
1 | CC(C)[C@@H]1NC(=O)[C@H](Cc2ccc(O)cc2)NC(=O)[C@H](Cc2c[nH]c3ccccc23)NC(=O)[C@@H](NC(=O)[C@H](Cc2ccccc2)NC(=O)CN)CSSC[C@@H](C(=O)N[C@@H](CC(N)=O)C(=O)O)NC(=O)[C@H](CCCNC(=N)N)NC(=O)[C@H](CCCNC(=N)N)NC(=O)[C@H](Cc2ccc(O)cc2)NC(=O)[C@@H]2CSSC[C@H](NC1=O)C(=O)N[C@@H](C)C(=O)N[C@@H](CCCNC(=N)N)C(=O)N[C@@H](CCCNC(=N)N)C(=O)N[C@@H](CC(N)=O)C(=O)NCC(=O)N[C@@H](C)C(=O)N[C@@H](CCCNC(=N)N)C(=O)N[C@@H](C(C)C)C(=O)N2 [AA139, reference compound] (H-GFCWYVCARRNGARVCYRRCN-OH; disulfide 3-20, 7-16) | 4 fold | 4 µM (≈ 10.2 µg/mL) | effective | 25.67 min |  | Minimum Inhibitory Concentration, MHB + 0.9% NaCl + 25% FBS (E. coli ML-35p; Table 1, medium with 25% fetal bovine serum): 1 µM; Minimum Inhibitory Concentration, MHB + 0.9% NaCl (E. coli ML-35p; Table 1, without FBS, dilutions in 0.1% BSA): 0.25 µM; Bacterial burden in mice blood (in words) (E. coli 3421/E19; neutropenic BALB/c mice, n = 5, i.p. infection, single i.v. dose 1 h post-infection (AMPs 10 mg/kg, polymyxin B 5 mg/kg), CFU 5 h after treatment): complete reduction; Reduction of the CFU level in peritoneal fluid (PF) (E. coli 3421/E19; neutropenic BALB/c mice, n = 5, single i.v. dose (AMPs 10 mg/kg, polymyxin B 5 mg/kg), CFU 5 h after treatment): ~ 5 log; Therapeutic efficacy (survival) after one-week experiment (E. coli ATCC 25922; peptide i.p. 10 mg/kg at 1 and 4 h post-infection, 7 days): 87.5%
2 | CC[C@H](C)[C@@H]1NC(=O)[C@H](CCCNC(=N)N)NC(=O)[C@H](C(C)C)NC(=O)CNC(=O)[C@H](CC(N)=O)NC(=O)[C@H](CCCNC(=N)N)NC(=O)[C@H](CCCNC(=N)N)NC(=O)[C@H](Cc2ccc(O)cc2)NC(=O)[C@@H]2CSSC[C@H](NC1=O)C(=O)N[C@@H](Cc1ccc(O)cc1)C(=O)N[C@@H](CCCNC(=N)N)C(=O)N[C@@H](CCCNC(=N)N)C(=O)N[C@H](C(=O)N[C@@H](CC(N)=O)C(=O)O)CSSC[C@H](NC(=O)[C@H](Cc1ccc(O)cc1)NC(=O)CN)C(=O)N[C@@H](Cc1ccccc1)C(=O)N[C@@H]([C@@H](C)O)C(=O)N[C@@H](C)C(=O)N2 [Ap4] (H-GYCFTACYRRNGVRICYRRCN-OH; disulfide 3-20, 7-16) |  | 0.63 µM (≈ 1.62 µg/mL) |  | 24.79 min | ability to lyse hRBCs is stronger | Minimum inhibitory concentration (MIC): Gram-negative Geometric mean (Gram-negative bacteria; geometric mean (GM) of MICs against the 14 Gram-negative strains of Figure 2): 0.13 µM (≈ 0.334 µg/mL)
3 | CC[C@H](C)[C@@H]1NC(=O)[C@H](CCCNC(=N)N)NC(=O)[C@H](C)NC(=O)CNC(=O)[C@H](CC(N)=O)NC(=O)[C@H](CCCNC(=N)N)NC(=O)[C@H](CCCNC(=N)N)NC(=O)[C@H](C)NC(=O)[C@@H]2CSSC[C@H](NC1=O)C(=O)N[C@@H](Cc1ccc(O)cc1)C(=O)N[C@@H](CCCNC(=N)N)C(=O)N[C@@H](CCCNC(=N)N)C(=O)N[C@H](C(=O)N[C@@H](CC(N)=O)C(=O)O)CSSC[C@H](NC(=O)[C@H](Cc1ccc(O)cc1)NC(=O)CN)C(=O)N[C@@H](Cc1ccccc1)C(=O)N[C@@H]([C@@H](C)O)C(=O)N[C@@H](C)C(=O)N2 [Ap11] (H-GYCFTACARRNGARICYRRCN-OH; disulfide 3-20, 7-16) | 4 fold | 4 µM (≈ 9.8 µg/mL) | ineffective | 25.17 min |  | Fold reduction in the antimicrobial activity compared to Ap4 (Gram-negative bacteria; Gram-negative GM values): at least 5 fold; Residual viability of bacteria in mature biofilm ([2]; 16 µM): about 20%
4 | CC[C@H](C)[C@@H]1NC(=O)[C@H](CCCNC(=N)N)NC(=O)[C@H](C(C)C)NC(=O)CNC(=O)[C@H](CC(N)=O)NC(=O)[C@H](CCCNC(=N)N)NC(=O)[C@H](Cc2ccc(O)cc2)NC(=O)[C@H](Cc2ccc(O)cc2)NC(=O)[C@@H]2CSSC[C@H](NC1=O)C(=O)N[C@@H](C(C)C)C(=O)N[C@@H](CCCNC(=N)N)C(=O)N[C@@H](Cc1ccc(O)cc1)C(=O)N[C@H](C(=O)N[C@@H](CC(N)=O)C(=O)O)CSSC[C@H](NC(=O)[C@H](Cc1ccccc1)NC(=O)CN)C(=O)NCC(=O)N[C@@H](Cc1ccc(O)cc1)C(=O)N[C@@H](C)C(=O)N2 [UuBRI-21] (H-GFCGYACYYRNGVRICVRYCN-OH; disulfide 3-20, 7-16) | 16 fold | 2 µM (≈ 4.95 µg/mL) | lack of effectivity | 28.48 min | moderate hemolytic activity | 
5 | O=C(O)c1cn(C2CC2)c2cc(N3CCNCC3)c(F)cc2c1=O [ciprofloxacin, reference compound] |  |  |  |  |  | Survival (in words) (E. coli ATCC 25922; single i.p. dose of 10 mg/kg 1 h post-infection): survival of all mice; Effect on bacteria inside mature biofilm (in words) [2]: not able to impair bacteria inside biofilm
